Test results from US6120997A, “Nucleic acid binders having an hydroxyamine motif” (The Scripps Research Institute, priority 1998, dated 2000).

Assays:
[1] = NMR dilution experiments with chloride counterion in DMSO-d6; assay type: binding
Experimental: (§1) [a] NMR dilution experiments with the preformed 1:1 salt complexes were performed in DMSO-d6 at […]; [b] calculated maximum shift at full complexation in ppm.
(§2) In order to determine binding constants we prepared defined 1:1 salt complexes and measured their dissociation upon stepwise dilution in [D6 ]DMSO by following the shifts of NH and OH resonances. The chemical shift values of the totally uncomplexed state (o) and the fully complexed state (n) and the stability constant Ka were subsequently determined by curve fitting. […] In all cases, data could be fitted to a 1:1 binding isotherm. […] This order mirrors the order of binding affinities and is consistent with the interpretation that differential involvement of the hydroxyl group in hydrogen bonding provides for the energetic differences in complexation.

[2] = NMR dilution experiments of 1:1 salt complexes in DMSO-d6 (phosphodiester recognition); assay type: binding
Experimental: as §1, §2

AS-wt = assay: SPR binding of aminoglycosides to decoding region A-site model AS-wt; parameters: species or system E. coli
Experimental: The RNA binding properties of 100-800 were analyzed using a surface plasmon resonance based assay that was recently developed in these laboratories. This assay allows the determination of both affinity and specificity of small molecule-RNA interactions. For the analysis, the compounds were injected over a matrix containing RNA that was immobilized through a biotin tag and the equilibrium binding values were recorded at various concentrations.
Non-linear curve fitting was then used to determine the values of the dissociation constants (KD). The specificity of binding, i.e. the ability to discriminate between different RNA sequences was evaluated by comparing the binding to the target sequence (AS-wt) and the negative control (AS-U1495A). The ratio of KD(AS-U1495A) to KD(AS-wt) was taken to be a representation of the specificity of the binding event.
For the quantitative measurement of aminoglycoside binding to these sequences, we utilized our recently developed SPR-based assay. Biotinylated derivatives of all sequences were prepared by in vitro transcription in the presence of guanosine 5'-monophosphorothioate followed by alkylation with a biotin iodoacetamide derivative. The RNA conjugates were then immobilized onto streptavidin coated SPR-sensorchips for analysis.
In the same manner as illustrated for paromomycin, a panel of aminoglycosides was screened and the results are compiled in the table of FIGS. 46 and 47. In addition to the naturally occuring aminoglycoside antibiotics, some of the compounds in FIG. 46 are synthetically derived, unnatural aminoglycosides. The number of independent determinations for each dissociation constant ranged from 1-3. […] All data were recorded under near physiological salt conditions (HBS-buffer: 150 mM NaCl, 10 mM HEPES, pH7.4, 3.4 mM EDTA) unless noted otherwise. Data points were taken at concentrations ranging from […]. Below this concentration range, surface transport limitations prevent the attainment of equilibrium.
Plasmon resonance and antimicrobial testing for Example 4. Synthesis of the biotinylated RNA and surface plasmon resonance detected binding experiments were performed as described vida supra. Solution conditions: 150 mM NaCl, 10 mM HEPES (pH 7.4), 3.4 mM EDTA. KD determination from the binding curves.
The fitting routine of the program kaleidagraph was used for all calculations. The starting values for a and b were set to 1 and 0 respectively. The number of KD values used in the fitting was adjusted depending on the observed range of equivalents bound but generally varied from 3 to 4.
General Procedures for SPR Binding Studies done in Example 5. Samples were prepared by serial dilutions from stock solutions in RNase free microfuge tubes (Ambion) and were centrifuged at 14000 rpm for degassing. Unless otherwise noted, all binding studies were carried out using HBS buffer (Pharmacia Biosensor AB) which was used as obtained. All procedures for binding studies were automated as methods using repetitive cycles of sample injection and regeneration. Typically, buffer was injected in the first two cycles to establish a stable baseline value. Samples were injected at a flowrate of […] using either the KINJECT command. All aminoglycoside samples were injected from autoclaved 7 mm plastic vials that were capped with pierceable plastic crimp caps. To minimize carry over, samples were injected in order of increasing concentration. The running buffer was identical to the injection buffer. Expected values for the equilibrium response of one equivalent of analyte were calculated from the relative molecular weight of the analyte and the immobilized RNA ligand in each flowcells and adjusted with a correction factor of 0.76 which arises from the different molar refractive indices of RNA and the analyte. […]

[3] = test system: Escherichia coli (ATCC 25922); assay: minimum inhibitory concentration, broth dilution technique; assay type: cell-based; conditions: E. coli, liquid culture
Text: We reasoned that this modification would provide the cleanest test for probing the ionic contribution, since hydrogen bond donor abilities, electronegativity and steric demand are similar for both functional groups. In order to learn how well the model system correlates with in vivo activity, we checked the new compounds for antibacterial activity against three bacterial strains using the disc method (Kirby-Bauer technique). The minimum inhibitory concentrations (MICs) of the compounds were then determined using the broth dilution technique. For antibiotic testing protocols, see: (a) Disk testing protocols: Phillips, I.; Williams, D., in Laboratory Methods in Antimicrobial Chemotherapy, Garrod, L. (ed.) Churchill Livingstone Press: Edinburgh, 1978, pp. 3-30. (b) MIC determination: Waterworth, P. M., in Laboratory Methods in Antimicrobial Chemotherapy, Garrod, L. (ed.) Churchill Livingstone Press: Edinburgh, 1978, pp. 31-40; Barry, A. L. The Antimicrobic Susceptibility Test: Principles and Practice, Lea and Febiger: Philadelphia (1976). (c) Standards: Lorian, V., Antibiotics in Laboratory Medicine (2nd. ed.), Williams and Wilkins: Baltimore, 1986.
FIG. 39A gives the zone diameters measured for the three bacterial strains. The zone diameters measured for the strains with known antibiotics are well within the accepted limits. […] It is worth noting that some testing protocols recommend overnight growth of the cultures, rather than the minimum time required to obtain good growth of the control. MIC values were tested for several of the control antibiotics using overnight growth, and the MIC values observed were 2-4× greater than those observed for 4-6 hour growth.
Minimal Inhibitory Concentration (MIC) testing. E. coli ATCC 25922 was grown in Mueller-Hinton broth (cation-adjusted, BBL Microbiology Systems) to an optical density of approx. 0.5 (absorbance read at 600 nm), then diluted to an OD600 of 0.1. Samples of antibiotic were prepared in Mueller-Hinton broth, typically a series of 2-fold dilutions from […]. […] The absorbance of each sample was read (1=600 nm), and MIC was considered to be the lowest antibiotic concentration at which the absorbance was less than 1% of the no-antibiotic control.

[4] = 13C-NMR titration of neamine with sodium sulfate in water; assay type: binding; conditions: pH 3.5
Text: FIGS. 4A-4D illustrate the titration of neamine (12) with sodium sulfate at pH 3.5: (A) Titration curve for C1'. (B) Job plot; x=% complex formation. (C) Structure of neamine indicating the sites of maximum observed shift. (D) Maximum observed shift.
(§3) To investigate whether 1,3-hydroxyamine substructures may be involved in binding in aqueous solution, we turned our attention to neamine (12; FIG. 4), a pseudodisaccharide substructure commonly found in a wide range of aminoglycoside antibiotics. […] These weak forces may, however, be enhanced by increasing the charge of the interacting species. In fact, many recognition events involving nucleic acids--including those by aminoglycosides--are likely to have a strong contribution from their polyionic character. We therefore turned our attention to sulfate, as it is a tetrahedral oxyanion similar to phosphate and its double negative charge mimics the effect of a polyanion. Furthermore, it has a defined ionization state. Since the spectra of aminoglycosides are highly dependent on pH, and even minor pH changes can outweigh any small complexation induced shifts, we performed binding studies at low pH, where neamine is fully protonated. […] Analysis of ^13 C-NMR spectra provided a clearer picture (FIG. 4). […] Thus, the selectivity found in aqueous solution is in full agreement with the order of binding affinities determined in the model compounds.

[5] = test system: bacterial protein synthesis; conditions: cited from earlier work
[6] = NMR binding study with dimethylphosphate in water; conditions: concentration ranges accessible by NMR
Text: as §3

[7] = biological target: Rev27 (synthetic Rev34-50 RNA-binding peptide with flanking Ala and N-terminal Cys) (Human immunodeficiency virus 1) (UniProt P04618); assay: SPR; conditions: pH 7.4, 10 mM HEPES, 150 mM NaCl, 150 mM Na2SO4, 3.4 mM EDTA, 5 mM DTT, 10 C; 1:1; FIG. 7 legend gives 200 nM; Kd <10 nM at 5 C in 300 mM NaCl without sulfate
UniProt P04618, sequence (P04618 whole entry): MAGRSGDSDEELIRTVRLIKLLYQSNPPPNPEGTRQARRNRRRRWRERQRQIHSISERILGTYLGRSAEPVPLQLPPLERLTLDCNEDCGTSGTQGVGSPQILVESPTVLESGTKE

CO[C@H]1O[C@H](CNCc2ccccc2)[C@@H](O)[C@H](OCc2ccccc2)[C@H]1OCc1ccccc1 [Compound 3]
chloride binding (in words) [1]: lower chloride binding compared to 2, 4 and 5 | selectivity for dimethylphosphate over chloride [2]: 7 fold

NC[C@H]1O[C@H](O[C@H]2[C@H](O)[C@@H](O)[C@H](N)C[C@@H]2N)[C@H](N)[C@@H](O)[C@@H]1O [Neamine]
Kd (AS-wt; 150 mM NaCl, 10 mM HEPES (pH 7.4), 3.4 mM EDTA, read-out: dissociation constant, AS-wt): 7.8 µM | specificity for AS-wt over negative controls (in words) (AS-wt; Example 5, HBS-buffer): moderate specificity for AS-wt over AS-U1495A | specificity for AS-wt relative to AS-U1495A (AS-wt; KD(AS-U1495A)/KD(AS-wt)): approximately 4 fold | antibacterial activity / MIC compared with neomycin B (in words) [3]: inferior anti microbial activity | binding stoichiometry with sulfate (method of Job) [4]: 1:1 complex | effect on bacterial protein synthesis (in words) [5]: induces miscoding during translation | binding to dimethylphosphate in water (in words) [6]: no detectable binding

wt-RRE-II
Kd [7]: 0.215 µM
